Measurements reported in a melting point compilation (Tetko et al.; mined from patent text by program, amines drawn as free bases though some values may be those of a salt).

melting point [°C] | Structure (SMILES)
273 to 274 | N#CCCc1cc(F)c2ncc(C(=O)NCc3ccc(Cl)cc3)c(O)c2c1
171 to 174 | O=C(NC1CCC1)c1ccc(-c2ccc3nnn(Cc4ccc5ncccc5c4)c3n2)cc1F
68 to 70 | Fc1cccc(Cl)c1-c1nc(F)n(-c2ccccc2C(F)(F)F)n1
194 to 196 | CC1(c2ccccc2)Cc2cc(O)c(Cl)c(Cl)c2C1=O (stereo not drawn)
249 to 252 | Clc1ccc(Nc2cncc(-n3cc4ccccc4n3)n2)cc1
43 to 45 | CCOC(=O)c1cccc(CSCCNC(=O)c2c(Cl)cccc2Cl)c1
312 to 314 | O=C(Nc1ccc(-c2ccc(-c3ccc(NC(=O)c4ccccc4)cc3)o2)cc1)c1ccccc1
187 to 189 | O=C(Nc1ccc2c(c1)CCC(CCN1CCCC1)=C2)c1ccc(-c2ccc(F)cc2)cc1
110 to 112 | COC(=O)c1ccc(CN(C(C)C)S(=O)(=O)c2ccc(Cl)cc2)cc1
98 to 100 | CCOC(=O)/C=C/C=C(c1ccc(Cl)cc1)c1ccc(Cl)cc1
176 to 179 | Cc1ccc(-c2ccc(C(=O)Nc3cc4ncc(CN5CCCC5)cc4cc3C)c(F)c2)cc1
203 to 205 | COc1ccc(C(=O)Nc2ccccc2)cc1NC(=S)Nc1cc(C)cc(C)c1
115 | O=C1C2CN(CCc3ccc(Cl)cc3)CC2C(=O)N1c1cc(Cl)cc(Cl)c1 (stereo not drawn)
116 to 117 | COc1ccc(-c2cc(=O)n(Cc3ccccn3)nc2-c2ccc(OC)cc2)cc1
214 to 216 | CC(=O)OCC1OC(n2cc(Cc3ccc(Cl)cc3)c3c(Cl)cccc32)C(OC(C)=O)C(OC(C)=O)C1OC(C)=O (stereo not drawn)
282 to 285 | O=C1c2ccc(F)cc2C(=O)N1CCN1CCN(c2n[nH]c3cc(F)ccc23)CC1
218 to 223 | O=C(O)c1cc2cc(Cl)cc(Cl)c2nc1N[C@@H](Cc1ccccc1)C(=O)O
171 to 172 | CC(=O)Nc1ccc(C(=O)NCc2ccc(-n3c(-c4cccnc4N)nc4cc(C)cnc43)cc2)cc1
135 to 137 | CC(C(=O)O)c1ccc2oc(Cc3ccc(Cl)cc3)nc2c1 (stereo not drawn)

melting point [°C] | Structure (SMILES)
251 to 252 | Cc1cc2c(-c3ccccc3Cl)c(C(=O)O)c(=O)n(C)c2cc1C
218 to 220 | Cc1ccc(-c2c(Cl)ccc3c2C=C(C(=O)O)C(C(F)(F)F)O3)cc1 (stereo not drawn)
153 to 155 | CCOP(=O)(/C=C/c1cn(-c2ccccc2)nc1OCc1ccc(OCc2nc(-c3cccc(C(=O)O)c3)oc2C)cc1)OCC
198 | CS(=O)(=O)C(=C1CN(C(c2ccccc2)c2ccccc2)C1)c1cccc(I)c1
85 | CCOC(=O)c1ncsc1-c1cccc(OCc2cccc(C#N)c2)c1
72 to 74 | CCc1oc2ccccc2c1C(=O)c1ccc(OCC(=O)OC)cc1
162 to 166 | CN(C)c1cccc(N(C)C)c1NC(=O)N(Cc1ccc(O)cc1)CC1(c2ccccn2)CCCCC1
194 to 195 | COCc1cc(NCc2ccccc2C)c2ccccc2n1
153 to 155 | COC(=O)c1ccc(NS(=O)(=O)c2ccc(Oc3cccc(Cl)c3C#N)cc2)cn1
133 to 135 | Cc1nsc(NC(=O)Cc2ccc3nn(CC(C)C)cc3c2)c1Cl
158 to 159 | N#Cc1cc(NC(=O)c2cccn2-c2ccc(F)cc2)ccc1N1CCCCC1
189 to 190 | Cc1oc(-c2ccc(Cl)cc2)cc1C(=O)N[C@H](C)[C@](O)(Cn1cncn1)c1ccc(F)cc1F
128 | Cn1cncc1C(O)(c1ccc(Cl)cc1)c1ccc2c(c1)c(CCc1ccc(Cl)s1)cc(=O)n2C (stereo not drawn)
170 to 172 | COc1ccc2c(Cc3c(Cl)cncc3Cl)nnc(N3CCCC3)c2c1
114 to 125 | CCCC(=O)NN=C(c1ccc(Cl)cc1)c1ccc(OC(F)F)cc1
242 to 243 | COc1cc(-c2c(Cl)c(CN3C(=O)CCC3=O)nc3sc4c(c23)CCN(C(C)=O)C4)ccc1OC(C)C
152 | O=[N+]([O-])c1ccc(C=C2c3ccccc3C=Cc3ccccc32)cc1
196 to 197 | COc1ccc(-n2cnc3ccc(C(=O)NN)cc32)cc1
130 | COc1ccc(CN(C)CCCCCc2ccc(NC(=O)c3cccc4c(=O)c5cccc(F)c5[nH]c34)cc2)cc1OC

Continued, compound first:

Structure (SMILES) | melting point [°C]
CCOc1nn(-c2ccc(C(F)(F)F)cn2)cc1CCO | 75 to 76
CS(=O)c1ccc(OCCCOc2cc(OCCCCCCCCCCCCOc3ccccc3)cc(N(CC(=O)O)CC(=O)O)c2)cc1 (stereo not drawn) | 106 to 108
O=S1(=O)N=C(NC2CCCC2)Nc2cc(F)ccc21 | 295 to 298
C=CC1(CC(N)=O)CC(C)(C)CC(C)(C)C1 | 44 to 46
CCCc1nc2ccc(N(C)C)nn2c1S(N)(=O)=O | 215 to 217
Cc1ccc2c(c1)N(C(=O)NCCN1CCC(CCCN(C(C)C)C(C)C)CC1)c1ncccc1NC2=O | 160 to 162
CCCCCCCCS(=O)(=O)NCCCCOc1ccc(-n2ccnc2)cc1 | 99 to 100
CC12CCC3C4CCC(=O)C=C4CCC3C1CCC2C(F)F (stereo not drawn) | 102 to 103
CC(=O)N1CCSc2ccccc2C1 | 69 to 70
ONC(=S)CCc1ccc(F)cc1 | 115 to 116
O=Cc1cccc2oc(-c3ccccc3)nc12 | 116
CSc1ncc2c(n1)Nc1ccccc1-n1nnnc1-2 | 244 to 246
CON=C(c1ccc(OC(C)(C)C(=O)O)c(C)c1)c1cccs1 | 108
CCCCCCCCCCCCn1nnc(C(C(=O)Nc2c(OC)cc(OC)cc2OC)c2ccccc2)n1 (stereo not drawn) | 119 to 120
O=CN(O)C(CS(=O)(=O)c1ccc(Oc2ccc(OC(F)(F)F)cc2)cc1)C1CCC2(CC1)OCCO2 (stereo not drawn) | 176 to 177
CCn1cc(C(=O)O)c(=O)c2cc3c(nc21)CCO3 | 292
O=[N+]([O-])c1cc(-n2cccc2)ccc1F | 79 to 81
CNC(=O)N/N=C1/C(=O)N(CCN(C(C)C)C(C)C)c2ccccc21 | 175 to 177
CCCCCCOc1ccc(F)c(C(N)=O)c1Cl | 66 to 68
O=C1CCC(N2CCN(c3ccccn3)CC2)CC1 | 142 to 144

Structure (SMILES) | melting point [°C]
NC(=O)c1cnn2cccc2c1NCC1CCCO1 (stereo not drawn) | 120
O=C1COc2cc(F)c(N3C(=O)C4=C(CCCC4)C3=O)cc2N1Cc1ccon1 | 206 to 210
COC(=O)C(C)(C)OCC#Cc1cc(C(F)(F)F)ccc1NS(=O)(=O)c1cc(C)cc(C)c1 | 128 to 130
Cc1cc(CC(=O)O)ccc1NC(=O)Nc1ccccc1C(F)(F)F | 262 to 263
CCCCOc1cc(OCCCC)c(C(=O)O)c(C(F)(F)F)n1 | 90 to 93.5
Cc1nc2cccc3n(CCCCCNS(=O)(=O)C(F)(F)F)c(=O)c1n23 | 149 to 150
C/C(=C\C=C\c1ccccc1)C(=O)NCCCCCC(=O)NO | 158 to 160
CC(C)CN(Cc1ccccc1)c1ncnc2c1ncn2C1CCCCO1 (stereo not drawn) | 93 to 95
CC=Cc1nc2cc3c(cc2[nH]1)NC(=O)C3(C)C | 252 to 254
CCN(CC)CCN(CCCCCSc1nc(-c2ccccc2)c(-c2ccccc2)[nH]1)C(=O)NC(C)C | 58 to 59
O=c1c2cc3ccccc3cc2oc2cc(OCC3CO3)cc(OCC3CO3)c12 (stereo not drawn) | 181 to 182
Cc1c(C=O)c2c(c(C)c1NC(=O)NC(C)(C)C)C(c1ccc(C(C)C)cc1)CO2 (single isomer, unassigned; (-)) | 209 to 210
Cc1ccc(C2CCCCC2)n1CC[C@H]1C[C@H](O)CC(=O)O1 (relative stereo) | 129 to 130
O=C(NC1(C(=O)O)CCc2cc(O)ccc2C1)C(F)(F)F (stereo not drawn) | 70 to 95
C[C@H]1C(=O)C[C@@H]2C[C@H]1OO[C@]2(C)/C=C\c1ccc(Cl)c(Cl)c1 | 135
Cn1cccc1S(=O)(=O)NC(C)(C)C | 125 to 126
Cc1ccc2c(c1)[nH]c(=O)n2CCCOS(C)(=O)=O | 125
COc1cc2c(cc1O)CCN(Cc1cccc(NS(C)(=O)=O)c1)C2 | 99 to 101
O=[N+]([O-])c1cc(F)ccc1NC1CCN(Cc2ccccc2)CC1 | 86 to 87
CCc1ccc(C(O)CNC(=C[N+](=O)[O-])NCCSCc2cc(C)c(CN(C)C)s2)cc1 (stereo not drawn) | 112 to 115

Structure (SMILES) | melting point [°C]
O=C(NCC1CCCCC1)c1c(Cl)ccc2nc(N3CCC[C@@H]3C(=O)O)ccc12 | 157 to 160
CCOC1CC2(C)C(CCC3C4CCC(C(=O)CBr)C4(C)CC(=O)C32)CC1O (stereo not drawn) | 74 to 78
CC1=CC(C)(C)C=C(O)C1 | 46
Nc1cc([N+](=O)[O-])c(Cl)cc1F | 82 to 83.5
Cc1c(N2CCC3(CC3N)C2)c(F)cc2c(=O)c(C(=O)O)cn([C@@H]3C[C@@H]3F)c12 (stereo partly drawn) | 103 to 109
CNC(=O)c1c(Nc2ccccc2[N+](=O)[O-])c(C)nn1C | 223 to 225
N=C(N)N1CCC(CC(=O)O)CC1 | > 310
COc1cc(NOC(C)=O)c(Cl)c(OC)c1 | 117 to 118
C=CCOc1ccc(C)c2c1C(=O)CC2 | 89 to 92
C=CCOc1ccccc1C(=O)Nc1c(CCC)nn(C)c1C(N)=O | 132 to 134
CC(C)C[C@H](NC(=O)C1CCCCC1)C(=O)N[C@@H](C(C)C)[C@@H](O)c1c(-c2ccccc2)c1=O | 116 to 120
COc1ccc(-c2coc(C#N)cc2=O)cc1 | 165 to 167
Nc1nc(N)c2ncn(C3C=CC(CO)C3)c2n1 (stereo not drawn) | 152 to 155
CCCCCCCCCCCCCCCCNc1ccc(C(=O)OCCCO)cc1 | 67 to 69
CCOC(=O)C(NC(=O)c1ncn(Cc2ccccc2)c1[N+](=O)[O-])(OC)C(=O)OCC | 126 to 127
O=C(O)C1SC(c2ccccc2)=NN1C(=O)CCS (stereo not drawn) | 145 to 146
O=C1OCCN1CCN1CCN(Cc2ccccc2)CC1 | 82 to 84
O=C(CNC(=S)c1cccnc1)NC1CC1 | 152 to 153
O=C1Nc2ccc(F)c(F)c2C(C#Cc2ccccn2)(C(F)(F)F)N1 (racemic) | 219 to 220
CSc1ncc(S(=O)(=O)NC(C)(C)C)c(Cl)n1 | 117 to 118
